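48-hour exposure; five concentrations; linearly interpolated endpoints. GI50: concentration for 50% inhibition of growth. TGI: total growth inhibition.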
Key:
Experiment in all cases: NCI tumour cell line growth inhibition, 48 h
786-0 renal = tested on: 786-0 renal
A498 renal = tested on: A498 renal
A549 NSCLC = tested on: A549 NSCLC
ACHN renal = tested on: ACHN renal
BT-549 breast = tested on: BT-549 breast
CAKI-1 renal = tested on: CAKI-1 renal
CCRF-CEM leukemia = tested on: CCRF-CEM leukemia
COLO 205 colon = tested on: COLO 205 colon
DU-145 prostate = tested on: DU-145 prostate
EKVX NSCLC = tested on: EKVX NSCLC
HCC-2998 colon = tested on: HCC-2998 colon
HCT-116 colon = tested on: HCT-116 colon
HCT-15 colon = tested on: HCT-15 colon
HL-60(TB) leukemia = tested on: HL-60(TB) leukemia
HOP-62 NSCLC = tested on: HOP-62 NSCLC
HOP-92 NSCLC = tested on: HOP-92 NSCLC
HS 578T breast = tested on: HS 578T breast
HT29 colon = tested on: HT29 colon
IGROV1 ovarian = tested on: IGROV1 ovarian
K-562 leukemia = tested on: K-562 leukemia
KM12 colon = tested on: KM12 colon
LOX IMVI melanoma = tested on: LOX IMVI melanoma
M14 melanoma = tested on: M14 melanoma
MALME-3M melanoma = tested on: MALME-3M melanoma
MCF7 breast = tested on: MCF7 breast
MDA-MB-231 breast = tested on: MDA-MB-231 breast
MDA-MB-435 = tested on: MDA-MB-435
NCI-H226 lung = tested on: NCI-H226 lung
NCI-H23 lung = tested on: NCI-H23 lung
NCI-H460 lung = tested on: NCI-H460 lung
NCI-H522 lung = tested on: NCI-H522 lung
NCI/ADR-RES ovarian = tested on: NCI/ADR-RES ovarian
OVCAR-3 ovarian = tested on: OVCAR-3 ovarian
OVCAR-4 ovarian = tested on: OVCAR-4 ovarian
OVCAR-5 ovarian = tested on: OVCAR-5 ovarian
OVCAR-8 ovarian = tested on: OVCAR-8 ovarian
PC-3 prostate = tested on: PC-3 prostate
RPMI-8226 leukemia = tested on: RPMI-8226 leukemia
RXF 393 renal = tested on: RXF 393 renal
SF-268 CNS = tested on: SF-268 CNS
SF-295 CNS = tested on: SF-295 CNS
SF-539 CNS = tested on: SF-539 CNS
SK-MEL-2 melanoma = tested on: SK-MEL-2 melanoma
SK-MEL-28 melanoma = tested on: SK-MEL-28 melanoma
SK-MEL-5 melanoma = tested on: SK-MEL-5 melanoma
SK-OV-3 ovarian = tested on: SK-OV-3 ovarian
SN12C renal = tested on: SN12C renal
SNB-19 CNS = tested on: SNB-19 CNS
SNB-75 CNS = tested on: SNB-75 CNS
SR leukemia = tested on: SR leukemia
SW-620 colon = tested on: SW-620 colon
T-47D breast = tested on: T-47D breast
TK-10 renal = tested on: TK-10 renal
U251 CNS = tested on: U251 CNS
UACC-257 melanoma = tested on: UACC-257 melanoma
UACC-62 melanoma = tested on: UACC-62 melanoma
UO-31 renal = tested on: UO-31 renal

Work on Cn1c2ccccc2c2c3c(c4c5ccccc5n(CCCCCC#N)c4c21)C(=O)N(O)C3=O yielded a GI50 (786-0 renal) of 1.59 µM, a TGI (786-0 renal) of 3.81 µM and a GI50 (A498 renal) of 1.21 µM. For the same molecule, the TGI (A498 renal) was 3.56 µM, the GI50 (A549 NSCLC) was 1.68 µM and the TGI (A549 NSCLC) was 50.4 µM. For the same molecule, the GI50 (ACHN renal) was 0.317 µM, the TGI (ACHN renal) was 1.19 µM and the GI50 (BT-549 breast) was 2.5 µM. The TGI (BT-549 breast) was 88.7 µM, the GI50 (CAKI-1 renal) was 1.37 µM and the TGI (CAKI-1 renal) was 3.03 µM. The GI50 (CCRF-CEM leukemia) was 0.374 µM, the TGI (CCRF-CEM leukemia) was > 100 µM and the GI50 (COLO 205 colon) was 2.5 µM. The TGI (COLO 205 colon) was 9.09 µM, the GI50 (DU-145 prostate) was 0.381 µM and the TGI (DU-145 prostate) was > 100 µM. For the same molecule, the GI50 (EKVX NSCLC) was 2.67 µM, the TGI (EKVX NSCLC) was > 100 µM and the GI50 (HCC-2998 colon) was 2.57 µM. It also gave a TGI (HCC-2998 colon) of 38.5 µM, a GI50 (HCT-116 colon) of 0.87 µM and a TGI (HCT-116 colon) of 4.14 µM. It also gave a GI50 (HCT-15 colon) of 1.82 µM, a TGI (HCT-15 colon) of 50.9 µM and a GI50 (HL-60(TB) leukemia) of 0.381 µM. The TGI (HL-60(TB) leukemia) was 1.81 µM, the GI50 (HOP-62 NSCLC) was 0.42 µM and the TGI (HOP-62 NSCLC) was 5.65 µM. The GI50 (HOP-92 NSCLC) was 1.77 µM, the TGI (HOP-92 NSCLC) was 6.99 µM and the GI50 (HS 578T breast) was 3.25 µM. For the same molecule, the TGI (HS 578T breast) was 41.9 µM, the GI50 (HT29 colon) was 1.65 µM and the TGI (HT29 colon) was 3.36 µM. It also gave a GI50 (IGROV1 ovarian) of 1.59 µM, a TGI (IGROV1 ovarian) of 4.61 µM and a GI50 (K-562 leukemia) of 0.71 µM. For the same molecule, the TGI (K-562 leukemia) was > 100 µM, the GI50 (KM12 colon) was 1.5 µM and the TGI (KM12 colon) was 5.95 µM. The GI50 (LOX IMVI melanoma) was 0.167 µM, the TGI (LOX IMVI melanoma) was 1.24 µM and the GI50 (M14 melanoma) was 0.39 µM. The TGI (M14 melanoma) was > 100 µM, the GI50 (MALME-3M melanoma) was 2.22 µM and the TGI (MALME-3M melanoma) was 7.05 µM. It also gave a GI50 (MCF7 breast) of 0.299 µM, a TGI (MCF7 breast) of 27.9 µM and a GI50 (MDA-MB-231 breast) of 2.34 µM. The TGI (MDA-MB-231 breast) was 7.92 µM, the GI50 (MDA-MB-435) was 0.788 µM and the TGI (MDA-MB-435) was 9.59 µM. It also gave a GI50 (NCI-H226 lung) of 1.6 µM, a TGI (NCI-H226 lung) of 7.14 µM and a GI50 (NCI-H23 lung) of 1.18 µM. For the same molecule, the TGI (NCI-H23 lung) was 9.91 µM, the GI50 (NCI-H460 lung) was 0.377 µM and the TGI (NCI-H460 lung) was 2.34 µM. For the same molecule, the GI50 (NCI-H522 lung) was 0.268 µM, the TGI (NCI-H522 lung) was 1.42 µM and the GI50 (NCI/ADR-RES ovarian) was 0.873 µM. It also gave a TGI (NCI/ADR-RES ovarian) of 24.2 µM, a GI50 (OVCAR-3 ovarian) of 1.29 µM and a TGI (OVCAR-3 ovarian) of 7.9 µM. The GI50 (OVCAR-4 ovarian) was 1.91 µM, the TGI (OVCAR-4 ovarian) was 9.33 µM and the GI50 (OVCAR-5 ovarian) was 2.43 µM. For the same molecule, the TGI (OVCAR-5 ovarian) was 8.04 µM, the GI50 (OVCAR-8 ovarian) was 0.759 µM and the TGI (OVCAR-8 ovarian) was 10.8 µM. It also gave a GI50 (PC-3 prostate) of 2.22 µM, a TGI (PC-3 prostate) of 8.4 µM and a GI50 (RPMI-8226 leukemia) of 0.609 µM. The TGI (RPMI-8226 leukemia) was 4.65 µM, the GI50 (RXF 393 renal) was 1.83 µM and the TGI (RXF 393 renal) was 7.75 µM. For the same molecule, the GI50 (SF-268 CNS) was 0.624 µM, the TGI (SF-268 CNS) was > 100 µM and the GI50 (SF-295 CNS) was 3.03 µM. The TGI (SF-295 CNS) was 9.71 µM, the GI50 (SF-539 CNS) was 0.295 µM and the TGI (SF-539 CNS) was 1.1 µM. The GI50 (SK-MEL-2 melanoma) was 1.54 µM, the TGI (SK-MEL-2 melanoma) was 3.84 µM and the GI50 (SK-MEL-28 melanoma) was 1.72 µM. For the same molecule, the TGI (SK-MEL-28 melanoma) was 9.91 µM, the GI50 (SK-MEL-5 melanoma) was 0.319 µM and the TGI (SK-MEL-5 melanoma) was 1.09 µM. For the same molecule, the GI50 (SK-OV-3 ovarian) was 0.596 µM, the TGI (SK-OV-3 ovarian) was 7.45 µM and the GI50 (SN12C renal) was 0.453 µM. The TGI (SN12C renal) was 20.9 µM, the GI50 (SNB-19 CNS) was 0.545 µM and the TGI (SNB-19 CNS) was > 100 µM. For the same molecule, the GI50 (SNB-75 CNS) was 0.43 µM, the TGI (SNB-75 CNS) was 6.2 µM and the GI50 (SR leukemia) was 0.333 µM. For the same molecule, the TGI (SR leukemia) was > 100 µM, the GI50 (SW-620 colon) was 0.732 µM and the TGI (SW-620 colon) was > 100 µM. For the same molecule, the GI50 (T-47D breast) was 0.419 µM, the TGI (T-47D breast) was 6.89 µM and the GI50 (TK-10 renal) was 3.94 µM. For the same molecule, the TGI (TK-10 renal) was 40 µM, the GI50 (U251 CNS) was 0.33 µM and the TGI (U251 CNS) was 1.51 µM. The GI50 (UACC-257 melanoma) was 1.65 µM, the TGI (UACC-257 melanoma) was 5.22 µM and the GI50 (UACC-62 melanoma) was 0.465 µM. The TGI (UACC-62 melanoma) was 2.03 µM, the GI50 (UO-31 renal) was 0.374 µM and the TGI (UO-31 renal) was 1.97 µM.

Source: PubChem BioAssay (NCI)
